Experimental data taken from patent US4725592A, “1-Acyloxyalkyl esters of cephalosporin” (Takeda Chemical Industries, Ltd., priority 1983, dated 1988).
Read-outs that look alike come from different tables or passages of the source.

How the values were obtained:
[1] = set-up: species or system mice; conditions: mouse, in vivo; for Bioavailability / Plasma level of non-ester (Compound [II]) 2 hr / AUC: 120 min; for Plasma level of non-ester (Compound [II]) 0.25 hr / Plasma level of non-ester (Compound [II]) 0.5 hr / Plasma level of non-ester (Compound [II]) 1.0 hr / Plasma level of non-ester (Compound [II]) 2 hr / AUC: po, 100 mg/kg; for Plasma level of non-ester (Compound [II]) 0.25 hr: 15 min; for Plasma level of non-ester (Compound [II]) 0.5 hr: 30 min; for Plasma level of non-ester (Compound [II]) 1.0 hr: 60 min
Experimental: The compounds of Examples (compound Nos. 1 and 2) and, as a control compound, the pivaloyloxymethyl ester of compound [II] (hereinafter referred to briefly as compound A) are administered orally to mice, each compound to one animal, in the dose of 100 mg/kg in terms of the non-ester, i.e. compound [II]. […] As a control, compound [II] is subcutaneously administered to a mouse and the AUC value is calculated as above.

[2] = test system: Staphylococcus aureus; conditions: Antimicrobial Agent and Chemotherapy 14, 557-568 (1978); cited from earlier work
[3] = test system: Escherichia coli; conditions: Antimicrobial Agent and Chemotherapy 14, 557-568 (1978); cited from earlier work
[4] = test system: Klebsiella pneumoniae; conditions: Antimicrobial Agent and Chemotherapy 14, 557-568 (1978); cited from earlier work
[5] = test system: Proteus vulgaris; conditions: Antimicrobial Agent and Chemotherapy 14, 557-568 (1978); cited from earlier work
[6] = test system: Proteus mirabilis; conditions: Antimicrobial Agent and Chemotherapy 14, 557-568 (1978); cited from earlier work
[7] = test system: Proteus morganii; conditions: Antimicrobial Agent and Chemotherapy 14, 557-568 (1978); cited from earlier work

| Bioavailability [1] | Plasma level of non-ester (Compound [II]) 0.25 hr [1] | Plasma level of non-ester (Compound [II]) 0.5 hr [1] | Plasma level of non-ester (Compound [II]) 1.0 hr [1] | Plasma level of non-ester (Compound [II]) 2 hr [1] | AUC [1] | Bioavailability ([1]; sc) | SMILES | antibacterial activity [2] | antibacterial activity [3] | antibacterial activity [4] | antibacterial activity [5] | antibacterial activity [6] | antibacterial activity [7] |
| --- | --- | --- | --- | --- | --- | --- | --- | --- | --- | --- | --- | --- | --- |
| 41.8% | 21000 ng/mL | 16200 ng/mL | 6100 ng/mL | 600 ng/mL | – | – | CN(C)CCn1nnnc1SCC1=C(C(=O)OCOC(=O)C(C)(C)C)N2C(=O)[C@@H](NC(=O)Cc3csc(N)n3)[C@H]2SC1 [A, pivaloyloxymethyl ester of compound [II]] | – | – | – | – | – | – |
| 91.0% | 55400 ng/mL | 37000 ng/mL | 8460 ng/mL | 2500 ng/mL | 35300 ng·h/mL | – | CC(C)CC(=O)OC(OC(=O)C1=C(CSc2nnnn2CCN(C)C)CS[C@@H]2[C@H](NC(=O)Cc3csc(N)n3)C(=O)N12)C(C)C.Cl.Cl (stereo partly drawn) [Compound No. 1, 1-(3-Methylbutyryloxy)-2-methylpropyl 7β-[2-(2-aminothiazol-4-yl)acetamido]-3-[[[1-(2-dimethylaminoethyl)-1H-tetrazol-5-yl]thio]methyl]ceph-3-em-4-carboxylate dihydrochloride] | – | – | – | – | – | – |
| 81.4% | 74300 ng/mL | 21600 ng/mL | 5360 ng/mL | 1800 ng/mL | 31600 ng·h/mL | – | CCCC(OC(=O)CC(C)C)OC(=O)C1=C(CSc2nnnn2CCN(C)C)CS[C@@H]2[C@H](NC(=O)Cc3csc(N)n3)C(=O)N12.Cl.Cl (stereo partly drawn) [Compound No. 2, 1-(3-Methylbutyryloxy)butyl 7β-[2-(2-aminothiazol-4-yl)acetamido]-3-[[[1-(2-dimethylaminoethyl) -1H-tetrazol-5-yl]thio]methyl]ceph-3-em-4-carboxylate dihydrochloride] | – | – | – | – | – | – |
| – | – | – | – | – | – | 100% | CN(C)CCn1nnnc1SCC1=C(C(=O)O)N2C(=O)[C@@H](NC(=O)Cc3csc(N)n3)[C@H]2SC1 [Compound [II], 7β-[2-(2-aminothiazol-4-yl)acetamido]-3-[[[1-(2-dimethylaminoethyl)-1H-tetrazol-5-yl]thio]methyl]ceph-3-em-4-carboxylic acid] | potent antibacterial activity | potent antibacterial activity | potent antibacterial activity | potent antibacterial activity | potent antibacterial activity | potent antibacterial activity |
